From patent US10441663B2, “Methods for treating cancer” (Bicycle Therapeutics Limited, priority 2016, dated 2019)
*1 amine or outer side, *2 acyl side, *3 side chain or, on linkers, in order; H or OH if unused. Where a SMILES comes first, the peptide text is derived from it. Bridges are numbered along the chain shown (N, C = ends). [ ]: non-standard residue; d: D form. The star is where a group is joined. X1 = COc1cc2cc(c1Cl)N(C)C(=O)C[C@H](OC(=O)[C@H](C)N(C)C(=O)CCSSC(C)CCC(=O)*)[C@]1(C)O[C@H]1[C@H](C)[C@@H]1C[C@@](O)(NC(=O)O1)[C@H](OC)/C=C/C=C(\C)C2; 1Nal = N[C@@H](Cc1cccc2ccccc12)C(=O)O; TBMB = c1c(C[*:1])cc(C[*:3])cc1C[*:2]; Tle = CC(C)(C)[C@H](N)C(=O)O; βAla = NCCC(=O)O; Sar = CNCC(=O)O

Test system: HT-29 xenograft
Experiment: In vivo efficacy of BT1718 in HT-29 xenograft
Parameters: species or system Mus Musculus; key to Best response at 10 mg/kg: CR complete response; PR partial response
Method: The objective of this study was to evaluate the in vivo anti-tumor efficacy of BT1718in treatment of HT1080, NCI-H292, NCI-H1975, MDA-MB-231, HCC1806, RPMI2650, HCT-15, HT-29 and SNU-16 xenograft in BALB/c nude mice.
The HT1080, NCI-H292, NCI-H1975, MDA-MB-231, HCC1806, RPMI2650, HCT-15, HT-29 and SNU-16 tumor cells were maintained in vitro as a monolayer culture in medium supplemented with 10% heat inactivated fetal bovine serum at 37° C. in an […]. The tumor cells will be routinely subcultured twice weekly by trypsin-EDTA treatment. The cells growing in an exponential growth phase will be harvested and counted for tumor inoculation.
Mouse was inoculated subcutaneously at the right flank with tumor cells for tumor development. The animals were randomized and treatment was started when the average tumor reaches certain volume for the efficacy study, the inoculating cell amounts and starting tumor size were shown as below in Table 9. The test article administration and the animal numbers in each group were shown in the experimental design in Table 10.
All the procedures related to animal handling, care and the treatment in the study were performed according to the guidelines of the Association for Assessment and Accreditation of Laboratory Animal Care (AAALAC). At the time of routine monitoring, the animals were daily checked for any effects of tumor growth and treatments on normal behavior such as mobility, food and water consumption (by looking only), body weight gain/loss (body weights were measured every day), eye/hair matting and any other abnormal effect as stated in the protocol. Death and observed clinical signs were recorded on the basis of the numbers of animals within each subset.
The major endpoint was to see if the tumor growth could be delayed or mice could be cured. Tumor size was measured three times weekly in two dimensions using a caliper, and the volume was expressed in mm^3 using the formula: V=0.5 a×b^2 where a and b are the long and short diameters of the tumor, respectively. The tumor size was then used for calculations of T/C value. The T/C value (in percent) is an indication of antitumor effectiveness; T and C are the mean volumes of the treated and control groups, respectively, on a given day.
TGI was calculated for each group using the formula: TGI (%)=[1−(Ti−T0)/(Vi−V0)]×100; Ti is the average tumor volume of a treatment group on a given day, T0 is the average tumor volume of the treatment group on the day of treatment start, Vi is the average tumor volume of the vehicle control group on the same day with Ti, and V0 is the average tumor volume of the vehicle group on the day of treatment start.
Summary statistics, including mean and the standard error of the mean (SEM), are provided for the tumor volume of each group at each time point.
Statistical analysis of difference in tumor volume among the groups was conducted on the data obtained at the best therapeutic time point after the final dose.
A one-way ANOVA was performed to compare tumor volume among groups, and when a significant F-statistics (a ratio of treatment variance to the error variance) was obtained, comparisons between groups were carried out with Games-Howell test. All data were analyzed using Prism. P<0.05 was considered to be statistically significant.

COc1cc2cc(c1Cl)N(C)C(=O)C[C@H](OC(=O)[C@H](C)N(C)C(=O)CCSSC(C)CCC(=O)NCCC(=O)N(C)CC(=O)N(C)CC(=O)N(C)CC(=O)N(C)CC(=O)N(C)CC(=O)N(C)CC(=O)N(C)CC(=O)N(C)CC(=O)N(C)CC(=O)N(C)CC(=O)N[C@@H](C)C(=O)N[C@H]1CSCc3cc4cc(c3)CSC[C@H](NC(=O)[C@@H](C)NC(=O)[C@H](Cc3cccc5ccccc35)NC(=O)[C@H](CCC(=O)O)NC(=O)[C@H](CC(N)=O)NC(=O)[C@@H](C)NC1=O)C(=O)N[C@@H](CCC(=O)O)C(=O)N[C@@H](CC(=O)O)C(=O)N[C@@H](Cc1ccccc1)C(=O)N[C@@H](Cc1ccc(O)cc1)C(=O)N[C@@H](CC(=O)O)C(=O)N[C@@H](C(C)(C)C)C(=O)N[C@H](C(N)=O)CSC4)[C@]1(C)O[C@H]1[C@H](C)[C@@H]1C[C@@](O)(NC(=O)O1)[C@H](OC)/C=C/C=C(\C)C2 (stereo partly drawn) [BT1718] ({X1-βAla}-[Sar][Sar][Sar][Sar][Sar][Sar][Sar][Sar][Sar][Sar]AC[dA]NE[1Nal][dA]CEDFYD[Tle]C-NH2; linker 12-18-25 via TBMB (inferred))
tumor response (10 mg/kg biw): significant tumor inhibition effect, but didn't cause tumor regression | Body Weight (1 mpk biw, day 0): 23.0 ± 0.2 g | Tumor Volume (1 mpk biw, day 0): 160 ± 27 mm^3 | Body Weight (1 mpk biw, day 2): 22.8 ± 0.2 g | Tumor Volume (1 mpk biw, day 2): 189 ± 18 mm^3 | Body Weight (1 mpk biw, day 4): 22.3 ± 0.5 g | Tumor Volume (1 mpk biw, day 4): 203 ± 13 mm^3 | Body Weight (1 mpk biw, day 6): 22.3 ± 0.5 g | Tumor Volume (1 mpk biw, day 6): 260 ± 18 mm^3 | Body Weight (1 mpk biw, day 8): 22.3 ± 0.4 g | Tumor Volume (1 mpk biw, day 8): 273 ± 35 mm^3 | Body Weight (1 mpk biw, day 11): 22.4 ± 0.7 g | Tumor Volume (1 mpk biw, day 11): 453 ± 45 mm^3 | Body Weight (1 mpk biw, day 13): 22.3 ± 0.7 g | Tumor Volume (1 mpk biw, day 13): 533 ± 43 mm^3 | Body Weight (3 mpk biw, day 0): 22.2 ± 0.2 g | Tumor Volume (3 mpk biw, day 0): 159 ± 36 mm^3 | Body Weight (3 mpk biw, day 2): 22.1 ± 0.4 g | Tumor Volume (3 mpk biw, day 2): 178 ± 41 mm^3 | Body Weight (3 mpk biw, day 4): 22.0 ± 0.5 g | Tumor Volume (3 mpk biw, day 4): 214 ± 51 mm^3 | Body Weight (3 mpk biw, day 6): 22.4 ± 0.6 g | Tumor Volume (3 mpk biw, day 6): 268 ± 70 mm^3 | Body Weight (3 mpk biw, day 8): 22.6 ± 0.6 g | Tumor Volume (3 mpk biw, day 8): 297 ± 87 mm^3 | Body Weight (3 mpk biw, day 11): 22.0 ± 0.4 g | Tumor Volume (3 mpk biw, day 11): 472 ± 129 mm^3 | Body Weight (3 mpk biw, day 13): 22.2 ± 0.3 g | Tumor Volume (3 mpk biw, day 13): 616 ± 145 mm^3 | Body Weight (10 mpk biw, day 0): 24.6 ± 1.2 g | Tumor Volume (10 mpk biw, day 0): 164 ± 32 mm^3 | Body Weight (10 mpk biw, day 2): 23.6 ± 1.2 g | Tumor Volume (10 mpk biw, day 2): 177 ± 28 mm^3 | Body Weight (10 mpk biw, day 4): 22.1 ± 1.5 g | Tumor Volume (10 mpk biw, day 4): 195 ± 36 mm^3 | Body Weight (10 mpk biw, day 6): 22.9 ± 1.5 g | Tumor Volume (10 mpk biw, day 6): 232 ± 54 mm^3 | Body Weight (10 mpk biw, day 8): 21.2 ± 1.2 g | Tumor Volume (10 mpk biw, day 8): 198 ± 44 mm^3 | Body Weight (10 mpk biw, day 11): 21.2 ± 1.7 g | Tumor Volume (10 mpk biw, day 11): 182 ± 46 mm^3 | Body Weight (10 mpk biw, day 13): 21.7 ± 1.0 g | Tumor Volume (10 mpk biw, day 13): 146 ± 32 mm^3 | Best response at 10 mg/kg (HT-29, 10 mg/kg): PR | TGI (HT-29, 1 mpk, biw, day 14): 24.0% | Tumor Volume (HT-29, 1 mpk, biw, day 14): 533 ± 43 mm^3 | TGI (HT-29, 3 mpk, biw, day 14): 6.8% | Tumor Volume (HT-29, 3 mpk, biw, day 14): 616 ± 145 mm^3 | TGI (HT-29, 10 mpk, biw, day 14): 103.6% | Tumor Volume (HT-29, 10 mpk, biw, day 14): 146 ± 32 mm^3 | Minimally Effective Dose IV BIW (HT-29, dose leading to tumor-stasis): 10 mg/kg
